Results: US20150126467A1, “USE OF ALGINATE OLIGOMERS TO ENHANCE THE EFFECTS OF ANTIFUNGAL AGENTS” (AlgiIPharma AS, priority 2011, published 2015)

Key:
Assay type in all cases: cell-based
[1] = system: C. tropicalis 75 (vaginal); assay: Robotic MIC assay, Candida strains (Example 2); settings: 48 h, Mueller-Hinton broth
Method: (§1) A robotic MIC Assay was performed as follows. OligoG CF-5/20 were dissolved in medium (Mueller-Hinton broth or M19 broth depending on experiment) to 1.25 times of the desired assay concentrations (2, 6 and 10%). The antifungal agents under test were dissolved in medium without OligoG CF-5/20 and in medium with OligoG CF-5/20 at a concentration of 1.25 times the highest desired assay concentrations. For experiments where the effect of adding different concentrations of Na^+ was investigated, NaCl was dissolved in medium to the desired concentrations (10, 30 and 50 mM).
(§2) Two-fold serial dilutions of antifungal agents were made in medium with different concentrations of OligoG CF-5/20, and the solutions were placed in four parallel wells in Nunc 384-well micro plates (30 μl per well in Nunc 242757 microplates). A group of 8 wells with no addition of antifungal agents for each OligoG CF-5/20 concentration was included on each microplate as growth reference. To each well in the 384-well assay plates was added 7.5 μl of medium inoculated with a frozen stock culture of Candida albicans (strain CCUG 39343).
(§3) The micro plates were placed in plastic bags and incubated without shaking at 34° C. The optical density at 600 nm in the microwells was measured after approximately 13, 18, 24 and 34 hours of incubation, and the relative growth yield in each well was calculated based on the growth in the reference groups.
(§4) The robotic assay described in Example 1 was employed in this Example. Strains were grown in Mueller-Hinton broth (LAB114 from Lab M Limited) and MIC values (μg ml-1) were determined for each antifungal after incubation for 48 h in the presence of 0, 2, 6 and 10% OligoG CF-5/20 G-fragments. […] OligoG CF-5/20 G-fragments were provided by AlgiPharma AS, Norway.
(§5) Candida strains used were as follows: • C. albicans CCUG 39343 (strain from culture collection) • C. parapsillosis ATCC 22019T (strain from culture collection) • C. krusei 141/03 (candidosis) • C. krusei 249/03(2) (ulceration) • C. lusitaniae 994/01(2) (candidosis) • C. tropicalis 12 (vaginal) • C. tropicalis 75 (vaginal) • C. tropicalis 519468 (urinary) • C. tropicalis 544123 (urinary) • C. tropicalis 250/03 (candidosis) • C. tropicalis AG1 (oral) • C. tropicalis T2.2 (oral)

[2] = system: C. tropicalis 12 (vaginal); assay: Robotic MIC assay, Candida strains (Example 2); settings: 48 h, Mueller-Hinton broth
Method: as §1, §2, §3, §4, §5

C. tropicalis AG1 (oral) = assay: Robotic MIC assay, Candida strains (Example 2); settings: 48 h, Mueller-Hinton broth
Method: as §1, §2, §3, §4, §5

[3] = system: C. tropicalis 544123 (urinary); assay: Robotic MIC assay, Candida strains (Example 2); settings: 48 h, Mueller-Hinton broth
Method: as §1, §2, §3, §4, §5

C. albicans CCUG 39343 = assay: Robotic MIC assay, Candida strains (Example 2); settings: 48 h, Mueller-Hinton broth
Method: as §1, §2, §3, §4, §5

[4] = system: C. tropicalis 250/03 (candidosis); assay: Robotic MIC assay, Candida strains (Example 2); settings: C. tropicalis 250/03 Candiosis, 48 h, Mueller-Hinton broth
Method: as §1, §2, §3, §4, §5

[5] = system: C. tropicalis 519468 (urinary); assay: Robotic MIC assay, Candida strains (Example 2); settings: 48 h, Mueller-Hinton broth
Method: as §1, §2, §3, §4, §5

[6] = system: C. krusei 249/03(2) (ulceration); assay: Robotic MIC assay, Candida strains (Example 2); settings: 48 h, Mueller-Hinton broth
Method: as §1, §2, §3, §4, §5

[7] = system: C. lusitaniae 994/01(2) (candidosis); assay: Robotic MIC assay, Candida strains (Example 2); settings: 48 h, Mueller-Hinton broth
Method: as §1, §2, §3, §4, §5

[8] = system: Cryptococcus neoformans CCUG 23451; assay: Robotic MIC assay, Cryptococcus neoformans (Example 6)
Method: Cryptococcus sp. was grown at 30° C. for 96 h on YM-agar. Spores and aerial mycelium was cut out from the agar, suspended in 1 ml YM-broth and dispersed with glass beads (1 mm) in a mini bead beater for 2 min. The suspension was added glycerol to 10% and frozen at −80° C. Each batch of frozen stock culture was then characterized in separate growth experiments using Mueller-Hinton and RPMI to determine the minimum amount of inoculum giving satisfactory growth after 48 h under the conditions relevant for the MIC assay. This inoculum procedure is used in order to reduce day to day variation in bioassays.
Robotic minimum inhibitory concentration (MIC) assay was performed as follows. OligoG CF-5/20 was dissolved in medium (Mueller-Hinton, RPMI with 2% glucose, Sabouraud or YM) to 1.25 times of the desired assay concentrations (2, 6 and 10%). […].
Two-fold serial dilutions of antifungal agents were made in medium with different concentrations of OligoG CF-5/20, and the solutions were placed in four parallel wells in Nunc 384-well micro plates (30 μl per well in Nunc 242757 microplates). A group of 8 wells with no addition of antifungal agents for each OligoG CF-5/20 concentration was included on each micro plate as growth reference. Each well in the 384-well assay plates was added 7.5 μl of the medium innoculated with frozen stock culture of the relevant strains.
The microplates were placed in plastic bags and incubated without shaking at 34° C. The optical density at 600 nm in the microwells was measured after certain time points from 24 h to 96 h of incubation. […]

Compound: C[C@@H]1[C@H](O)[C@@H](C)/C=C/C=C/CC/C=C/C=C/C=C/C=C/C(O[C@H]2O[C@H](C)[C@@H](O)[C@H](N)[C@@H]2O)CC2O[C@](O)(CC(O)C(O)CCC(O)CC(O)CC(O)CC(=O)O[C@H]1C)CC(O)C2C(=O)O (stereo partly shown) [Nystatin, nystatin]
- Minimum Inhibitory Concentration (MIC) ([1]; 0% OligoG): 8 µg/mL
- Minimum Inhibitory Concentration (MIC) ([1]; 2% OligoG): 8 µg/mL
- Minimum Inhibitory Concentration (MIC) ([1]; 6% OligoG): 8 µg/mL
- Minimum Inhibitory Concentration (MIC) ([1]; 10% OligoG): 2 µg/mL
- Minimum Inhibitory Concentration (MIC) ([2]; 0% OligoG): 8 µg/mL
- Minimum Inhibitory Concentration (MIC) ([2]; 2% OligoG): 8 µg/mL
- Minimum Inhibitory Concentration (MIC) ([2]; 6% OligoG): 4 µg/mL
- Minimum Inhibitory Concentration (MIC) ([2]; 10% OligoG): 4 µg/mL
- Minimum Inhibitory Concentration (MIC) (C. tropicalis AG1 (oral); 0% OligoG): 8 µg/mL
- Minimum Inhibitory Concentration (MIC) (C. tropicalis AG1 (oral); 2% OligoG): 8 µg/mL
- Minimum Inhibitory Concentration (MIC) (C. tropicalis AG1 (oral); 6% OligoG): 4 µg/mL
- Minimum Inhibitory Concentration (MIC) (C. tropicalis AG1 (oral); 10% OligoG): 2 µg/mL
- Minimum Inhibitory Concentration (MIC) ([3]; 0% OligoG): 8 µg/mL
- Minimum Inhibitory Concentration (MIC) ([3]; 2% OligoG): 8 µg/mL
- Minimum Inhibitory Concentration (MIC) ([3]; 6% OligoG): 2 µg/mL
- Minimum Inhibitory Concentration (MIC) ([3]; 10% OligoG): 2 µg/mL
- Minimum Inhibitory Concentration (MIC) (C. albicans CCUG 39343; 0% OligoG): 8 µg/mL
- Minimum Inhibitory Concentration (MIC) (C. albicans CCUG 39343; 2% OligoG): 8 µg/mL
- Minimum Inhibitory Concentration (MIC) (C. albicans CCUG 39343; 6% OligoG): 4 µg/mL
- Minimum Inhibitory Concentration (MIC) (C. albicans CCUG 39343; 10% OligoG): 2 µg/mL
- Minimum Inhibitory Concentration (MIC) ([4]; 0% OligoG): 8 µg/mL
- Minimum Inhibitory Concentration (MIC) ([4]; 2% OligoG): 4 µg/mL
- Minimum Inhibitory Concentration (MIC) ([4]; 6% OligoG): 2 µg/mL
- Minimum Inhibitory Concentration (MIC) ([4]; 10% OligoG): 1 µg/mL
- Minimum Inhibitory Concentration (MIC) ([5]; 0% OligoG): 16 µg/mL
- Minimum Inhibitory Concentration (MIC) ([5]; 2% OligoG): 8 µg/mL
- Minimum Inhibitory Concentration (MIC) ([5]; 6% OligoG): 4 µg/mL
- Minimum Inhibitory Concentration (MIC) ([5]; 10% OligoG): 2 µg/mL
- Minimum Inhibitory Concentration (MIC) ([6]; 0% OligoG): 8 µg/mL
- Minimum Inhibitory Concentration (MIC) ([6]; 2% OligoG): 8 µg/mL
- Minimum Inhibitory Concentration (MIC) ([6]; 6% OligoG): 8 µg/mL
- Minimum Inhibitory Concentration (MIC) ([6]; 10% OligoG): 4 µg/mL
- Minimum Inhibitory Concentration (MIC) ([7]; 0% OligoG): 8 µg/mL
- Minimum Inhibitory Concentration (MIC) ([7]; 2% OligoG): 8 µg/mL
- Minimum Inhibitory Concentration (MIC) ([7]; 6% OligoG): 2 µg/mL
- Minimum Inhibitory Concentration (MIC) ([7]; 10% OligoG): 1 µg/mL
- Minimum Inhibitory Concentration (MIC) ([8]; MH, 0% OligoG, 96 hours): 4 µg/mL
- Minimum Inhibitory Concentration (MIC) ([8]; MH, 2% OligoG, 96 hours): 1 µg/mL
- Minimum Inhibitory Concentration (MIC) ([8]; RPMI 2% GLU, 0% OligoG, 72 hours): 8 µg/mL
- Minimum Inhibitory Concentration (MIC) ([8]; RPMI 2% GLU, 0% OligoG, 96 hours): 8 µg/mL
- Minimum Inhibitory Concentration (MIC) ([8]; RPMI 2% GLU, 2% OligoG, 72 hours): 8 µg/mL
- Minimum Inhibitory Concentration (MIC) ([8]; RPMI 2% GLU, 2% OligoG, 96 hours): 8 µg/mL
- Minimum Inhibitory Concentration (MIC) ([8]; RPMI 2% GLU, 6% OligoG, 72 hours): 4 µg/mL
- Minimum Inhibitory Concentration (MIC) ([8]; RPMI 2% GLU, 6% OligoG, 96 hours): 8 µg/mL
- Minimum Inhibitory Concentration (MIC) ([8]; Sabouraud, 0% OligoG, 72 hours): 2 µg/mL
- Minimum Inhibitory Concentration (MIC) ([8]; Sabouraud, 0% OligoG, 96 hours): 2 µg/mL
- Minimum Inhibitory Concentration (MIC) ([8]; Sabouraud, 2% OligoG, 72 hours): 0.5 µg/mL
- Minimum Inhibitory Concentration (MIC) ([8]; Sabouraud, 2% OligoG, 96 hours): 0.5 µg/mL
- Minimum Inhibitory Concentration (MIC) ([8]; Sabouraud, 6% OligoG, 72 hours): 0.25 µg/mL
- Minimum Inhibitory Concentration (MIC) ([8]; Sabouraud, 6% OligoG, 96 hours): 0.25 µg/mL
- Minimum Inhibitory Concentration (MIC) ([8]; YM, 0% OligoG, 72 hours): 8 µg/mL
- Minimum Inhibitory Concentration (MIC) ([8]; YM, 0% OligoG, 96 hours): 16 µg/mL
- Minimum Inhibitory Concentration (MIC) ([8]; YM, 2% OligoG, 72 hours): 4 µg/mL
- Minimum Inhibitory Concentration (MIC) ([8]; YM, 2% OligoG, 96 hours): 8 µg/mL
- effect on MIC when OligoG is added to the medium ([8]; media: RPMI with 2% glucose, MH, Sabouraud, YM): reduction in MIC in all media tested
